These results are taken from PMC12811658, “Design, Synthesis, and Structural Evolution of Pseudo‐Natural Product IDO1 Inhibitors and Degraders” (Angewandte Chemie (International Ed. in English), 2025).

Some results are limits rather than exact numbers.

The first assay deals with Kyn levels in BxPC3 cells (kynurenine generated by IDO1). Nature of the assay: Cellular Kyn assay (automated Kyn screening assay). Format: cell-based.
Settings: not given
For `CC(C)[C@]12C[C@@H](OC(=O)Nc3ccc(I)cc3)[C@]3(CCN(S(=O)(=O)c4ccc(C(C)(C)C)cc4)C3)[C@H]1C2` [compound 23, (1S,2R,3R,5S)-1'-((4-(tert-butyl)phenyl)sulfonyl)-5-isopropylspiro[bicyclo[3.1.0]hexane-2,3'-pyrrolidin]-3-yl (4-iodophenyl) carbamate], the “activity in cellular Kyn assay (in words)” value (from here on “activity”) is “inactive”.
Turning to `CC(C)(C)c1ccc(S(=O)(=O)N2CC3CCCC3(COC(=O)Nc3ccc(I)cc3)C2)cc1` (stereo not shown) [compound 26, (2-((4-(tert-butyl)phenyl)sulfonyl)hexahydrocyclopenta [c]pyrrol-3a(1H)-yl) methyl (4-iodophenyl) carbamate], the “activity” value was “inactive”.
For the compound `Cc1ccc(NC(=O)NC[C@]23CN(S(=O)(=O)c4ccc(C(C)(C)C)cc4)C[C@H]2C[C@H]2C[C@@H]3C2(C)C)cc1` [compound 7, 1-(((3aR,4R,6R,7aS)-2-((4-(tert-butyl)phenyl)sulfonyl)-5,5-dimethyloctahydro-3aH-4,6-methanoisoindol-3a-yl)methyl)-3-(p-tolyl) urea], the “activity” value was “did not improve activity”.

Still in this assay, the particulars now being: Homo sapiens, BXPC-3, 48 h, IFN-γ, L-Trp and compounds 48 h, mean ± SD, read-out: IC50 (Kyn assay), reduction of kynurenine levels.
Take `CN(C)CC(C)(C)c1ccc(S(=O)(=O)N2C[C@H]3C[C@H]4C[C@H](C4(C)C)[C@@]3(COC(=O)Nc3ccc(I)cc3)C2)cc1` [compound 88, ((3aS,4R,6R,7aS)-2-((4-(1-(dimethylamino)-2-methylpropan-2-yl)phenyl)sulfonyl)-5,5-dimethyloctahydro-3aH-4,6-methanoisoindol-3a-yl)methyl (4-iodophenyl)carbamate]: the IC50 (as a rule, the midpoint of a concentration-inhibition curve) was determined as 2.5 ± 0.1 µM.
With `CC(C)(C)c1ccc(S(=O)(=O)N2C[C@H]3C[C@H]4C[C@H](C4(C)C)[C@@]3(COC(=O)Nc3ccc(C(F)(F)F)cc3)C2)cc1` [compound 45, ((3aS,4R,6R,7aS)-2-((4-(tert-butyl)phenyl)sulfonyl)-5,5-dimethyloctahydro-3aH-4,6-methanoisoindol-3a-yl)methyl (4-(trifluoromethyl)phenyl)carbamate], the IC50 is over 10 µM.
`Cc1ccc(S(=O)(=O)N2C[C@H]3C[C@H]4C[C@H](C4(C)C)[C@@]3(COC(=O)Nc3ccc(I)cc3)C2)cc1` [compound 68, ((3aS,4R,6R,7aS)-5,5-dimethyl-2-tosyloctahydro-3aH-4,6-methanoisoindol-3a-yl)methyl (4-iodophenyl)carbamate]: the IC50 came to 0.72 ± 0.27 µM.
The same measure, in the same setting: as for `CC(C)(C)c1ccc(S(=O)(=O)N2C[C@H]3C[C@H]4C[C@H](C4(C)C)[C@@]3(COC(=O)Nc3ccc(Br)cc3)C2)cc1` [compound 36, ((3aS,4R,6R,7aS)-2-((4-(tert-butyl)phenyl)sulfonyl)-5,5-dimethyloctahydro-3aH-4,6-methanoisoindol-3a-yl)methyl (4-bromophenyl)carbamate], the figure is 0.23 ± 0.05 µM; as for `CC(C)(C)c1ccc(S(=O)(=O)N2C[C@H]3C[C@H]4C[C@H](C4(C)C)[C@@]3(COC(=O)Nc3ccc(C#CCCO)cc3)C2)cc1` [compound 53, ((3aS,4R,6R,7aS)-2-((4-(tert-butyl)phenyl)sulfonyl)-5,5-dimethyloctahydro-3aH-4,6-methanoisoindol-3a-yl)methyl (4-(4-hydroxybut-1-yn-1-yl)phenyl)carbamate], 2.5 ± 0.2 µM; as for `CC1(C)[C@H]2C[C@@H]3CN(S(=O)(=O)c4ccc(C5CCCCC5)cc4)C[C@]3(COC(=O)Nc3ccc(I)cc3)[C@@H]1C2` [compound 71, ((3aS,4R,6R,7aS)-2-((4-cyclohexylphenyl)sulfonyl)-5,5-dimethyloctahydro-3aH-4,6-methanoisoindol-3a-yl)methyl (4-iodophenyl)carbamate], 1.1 ± 0.3 µM.
In the case of `CC(C)(C)c1ccc(S(=O)(=O)N2C[C@H]3C[C@H]4C[C@H](C4(C)C)[C@@]3(COC(=O)Nc3cccc(Br)c3)C2)cc1` [compound 39, ((3aS,4R,6R,7aS)-2-((4-(tert-butyl)phenyl)sulfonyl)-5,5-dimethyloctahydro-3aH-4,6-methanoisoindol-3a-yl)methyl (3-bromophenyl)carbamate], the IC50 was 9.9 ± 1.58 µM.
Regarding `Cc1ccccc1S(=O)(=O)N1C[C@H]2C[C@H]3C[C@H](C3(C)C)[C@@]2(COC(=O)Nc2ccc(I)cc2)C1` [compound 66, ((3aS,4R,6R,7aS)-5,5-dimethyl-2-(o-tolylsulfonyl)octahydro-3aH-4,6-methanoisoindol-3a-yl)methyl (4-iodophenyl)carbamate], the IC50 was determined as 0.65 ± 0.27 µM.
Consider `CC(C)(C)c1ccc(S(=O)(=O)N2C[C@H]3C[C@H]4C[C@H](C4(C)C)[C@@]3(COC(=O)Nc3ccc(C#N)cc3)C2)cc1` [compound 47, ((3aS,4R,6R,7aS)-2-((4-(tert-butyl)phenyl)sulfonyl)-5,5-dimethyloctahydro-3aH-4,6-methanoisoindol-3a-yl)methyl (4-cyanophenyl)carbamate], for which the IC50 was 2.1 ± 0.8 µM.
On to `CC1(C)[C@H]2C[C@@H]3CN(S(=O)(=O)c4ccccc4)C[C@]3(COC(=O)Nc3ccc(I)cc3)[C@@H]1C2` [compound 65, ((3aS,4R,6R,7aS)-5,5-dimethyl-2-(phenylsulfonyl)octahydro-3aH-4,6-methanoisoindol-3a-yl)methyl (4-iodophenyl)carbamate], for which the IC50 is 2.6 ± 0.5 µM.
Consider `CC1(C)[C@H]2C[C@@H]3CN(S(=O)(=O)c4ccc(-c5ccccc5)cc4)C[C@]3(COC(=O)Nc3ccc(I)cc3)[C@@H]1C2` [compound 70, ((3aS,4R,6R,7aS)-2-([1,1'-biphenyl]-4-ylsulfonyl)-5,5-dimethyloctahydro-3aH-4,6-methanoisoindol-3a-yl)methyl (4-iodophenyl)carbamate], for which the IC50 turned out to be 0.34 ± 0.17 µM.
As to `COC(=O)CC(C)(C)c1ccc(S(=O)(=O)N2C[C@H]3C[C@H]4C[C@H](C4(C)C)[C@@]3(COC(=O)Nc3ccc(I)cc3)C2)cc1` [compound 90, Methyl 3-(4-(((3aS,4R,6R,7aS)-3a-((((4-iodophenyl)carbamoyl)oxy)methyl)-5,5-dimethyloctahydro-2H-4,6-methanoisoindol-2-yl)sulfonyl)phenyl)-3-methylbutanoate], the IC50 turned out to be 0.032 ± 0.011 µM.
`CC1(C)[C@H]2C[C@@H]3CN(S(=O)(=O)c4ccc5ccccc5c4)C[C@]3(COC(=O)Nc3ccc(I)cc3)[C@@H]1C2` [compound 64, ((3aS,4R,6R,7aS)-5,5-dimethyl-2-(naphthalen-2-ylsulfonyl)octahydro-3aH-4,6-methanoisoindol-3a-yl)methyl (4-iodophenyl)carbamate]: the IC50 was found to be 0.4 ± 0.1 µM.
On the same count and under the same terms, next, `COc1ccc(NC(=O)OC[C@]23CN(S(=O)(=O)c4ccc(C(C)(C)C)cc4)C[C@H]2C[C@H]2C[C@@H]3C2(C)C)cc1` [compound 44, ((3aS,4R,6R,7aS)-2-((4-(tert-butyl)phenyl)sulfonyl)-5,5-dimethyloctahydro-3aH-4,6-methanoisoindol-3a-yl)methyl (4-methoxyphenyl)carbamate]: 1.2 ± 0.2 µM; `CC(C)(C)c1ccc(S(=O)(=O)N2C[C@H]3C[C@H]4C[C@H](C4(C)C)[C@@]3(COC(=O)Nc3ccc(Cl)cc3)C2)cc1` [compound 35, ((3aS,4R,6R,7aS)-2-((4-(tert-butyl)phenyl)sulfonyl)-5,5-dimethyloctahydro-3aH-4,6-methanoisoindol-3a-yl)methyl (4-chlorophenyl)carbamate]: 0.51 ± 0.08 µM.
Take `CC(C)(C)c1ccc(-c2ccc(S(=O)(=O)N3C[C@H]4C[C@H]5C[C@H](C5(C)C)[C@@]4(COC(=O)Nc4ccc(I)cc4)C3)cc2)cc1` [compound 76, ((3aS,4R,6R,7aS)-2-((4'-(tert-butyl)-[1,1'-biphenyl]-4-yl)sulfonyl)-5,5-dimethyloctahydro-3aH-4,6-methanoisoindol-3a-yl)methyl (4-iodophenyl)carbamate]: the IC50 was over 10 µM.
In the case of `CC1(C)[C@H]2C[C@@H]3CN(S(=O)(=O)c4ccc([Si](C)(C)C)cc4)C[C@]3(COC(=O)Nc3ccc(I)cc3)[C@@H]1C2` [compound 77, ((3aS,4R,6R,7aS)-5,5-dimethyl-2-((4-(trimethylsilyl)phenyl)sulfonyl)octahydro-3aH-4,6-methanoisoindol-3a-yl)methyl (4-iodophenyl)carbamate], the IC50 was determined as 0.26 ± 0.09 µM.
For the compound `Cc1ccc(NC(=O)OC[C@]23CN(S(=O)(=O)c4ccc(C(F)(F)F)cc4)C[C@H]2C[C@H]2C[C@@H]3C2(C)C)cc1` [compound 56, ((3aS,4R,6R,7aS)-5,5-dimethyl-2-((4-(trifluoromethyl)phenyl)sulfonyl)octahydro-3aH-4,6-methanoisoindol-3a-yl)methyl p-tolylcarbamate], the IC50 stood at 2.5 ± 1.1 µM.
On to `CC1(C)[C@H]2C[C@@H]3CN(S(=O)(=O)c4cccs4)C[C@]3(COC(=O)Nc3ccc(I)cc3)[C@@H]1C2` [compound 63, ((3aS,4R,6R,7aS)-5,5-dimethyl-2-(thiophen-2-ylsulfonyl)octahydro-3aH-4,6-methanoisoindol-3a-yl)methyl (4-iodophenyl)carbamate], for which the IC50 came out at 3.5 ± 0.3 µM.
`CC(C)(C(=O)N1CCOCC1)c1ccc(S(=O)(=O)N2C[C@H]3C[C@H]4C[C@H](C4(C)C)[C@@]3(COC(=O)Nc3ccc(I)cc3)C2)cc1` [compound 86, ((3aS,4R,6R,7aS)-5,5-dimethyl-2-((4-(2-methyl-1-morpholino-1-oxopropan-2-yl)phenyl)sulfonyl)octahydro-3aH-4,6-methanoisoindol-3a-yl)methyl (4-iodophenyl)carbamate]: the IC50 came out at 7.3 ± 1.4 µM.
As for `Cc1ccc(NC(=O)OC[C@]23CN(S(=O)(=O)C4CCCCC4)C[C@H]2C[C@H]2C[C@@H]3C2(C)C)cc1` [compound 55, ((3aS,4R,6R,7aS)-2-(cyclohexylsulfonyl)-5,5-dimethyloctahydro-3aH-4,6-methanoisoindol-3a-yl)methyl p-tolylcarbamate], the IC50 stood at 5.1 ± 0.4 µM.
For the compound `COc1ccc(S(=O)(=O)N2C[C@H]3C[C@H]4C[C@H](C4(C)C)[C@@]3(COC(=O)Nc3ccc(C)cc3)C2)cc1` [compound 57, ((3aS,4R,6R,7aS)-2-((4-methoxyphenyl)sulfonyl)-5,5-dimethyloctahydro-3aH-4,6-methanoisoindol-3a-yl)methyl p-tolylcarbamate], the IC50 was over 10 µM.
